Measurements as given in US11246907B2, “Immunosuppressive agents and their use in therapy” (Norwegian University of Science and Technology, priority 2013, dated 2022).

Experiments:
[1] = system: peripheral blood monocytes; assay: Multiplex (27-plex) cytokine secretion of TLR-ligand stimulated peripheral blood monocytes; assay type: cell-based, human; settings: LPS or polyIC, 4 h; ATX-101 4 μM, SB203580 10 μM, LY294002 5 and 10 μM, SC66 1 μg/ml
Experimental: Measured cytokine levels were normalized to cytokine levels from monocytes stimulated with TLR ligand alone. A two fold or higher increase in cytokine level after TLR stimulation was defined as cytokine induction. […] Isolated monocytes were stimulated with 10 ng/ml LPS and 40 μg/ml polyIC alone and in combination with 4 μM ATX-101 for 4 h. […] DRAQS was used for nuclear staining. Bar, 5 μm.
Data is from one representative donor out of three; and (B-E) show multiplex analysis of cytokine levels produced by peripheral blood monocytes stimulated with 10 ng/ml LPS (B and D, same donor) and 40 μg/ml polyIC (C and E, same donor) after 4 h. (B and C) Stimulated-monocytes were treated with 4 μM ATX-101, 10 μM SB203580 (p38 MAPK inhibitor), and combination of ATX-101 and SB203580. (D and E) Stimulated-monocytes were treated with 4 μM ATX-101, 5 and 10 μM LY294002 (PI3K class I inhibitor), and combination of ATX-101 and LY294002. Measured cytokine levels were normalized to cytokine levels from monocytes stimulated with TLR ligand alone. A two fold or higher increase in cytokine level after TLR stimulation was defined as cytokine induction. # Value is too low to be visible in the column diagram; ? cytokine measurement was out of range. Data is from representative experiments out of two.
Measured cytokine levels were normalized to cytokine levels from monocytes stimulated with TLR ligand alone. A two fold or higher increase in cytokine level after TLR stimulation was defined as cytokine induction. ? Cytokine measurement was out of range. Data is from one experiment out of two.
Measured cytokine levels were normalized to cytokine levels from monocytes stimulated with TLR ligand alone. Data is from one donor. We obtained similar results for IL-6 secretion in two other donors.
Measured cytokine levels were normalized to cytokine levels from monocytes stimulated with TLR ligand alone. A two fold or higher increase in cytokine level after TLR stimulation was defined as cytokine induction. # Value is too low to be visible in the column diagram; 0 Cytokine measurement was out of range. Data is from one experiment out of two.
Peripheral blood mononuclear cells were isolated from A+ buffy coats (Blood Bank, St. Olav's University Hospital, Trondheim, Norway) by density gradient centrifugation (Lymphoprep; Axis-Shield PoC, Oslo, Norway). Mononucleated cells were seeded at 4 million cells/ml in serum-free RPMI 1640 supplemented with glutamine and gentamicin. After 60-90 min the adherent cell population was washed before cultured in medium with 10% heat-inactivated human serum (Blood Bank, St. Olav's University Hospital). ATX-101 (4 μM [Innovagen, Lund, Sweden]), ATX-A (4 μM, [Innovagen]) (ATX-A is represented in SEQ ID NO: 1206 and contains the motif RALVK (SEQ ID NO: 1207), which is not capable of interacting with PCNA), p38 inhibitor (SB203580, 10 μM, [Sigma-Aldrich]), PI3K inhibitor (LY294002, 5 and 10 μM, [Sigma-Aldrich]), and Akt inhibitor (Akt inhibitor XVIII SC66, 1 μg/ml, [Sigma-Aldrich]) were added in serum-free medium and incubated for 5 min before LPS (10 ng/ml, [Sigma-Aldrich]), polylC (40 μg/ml, [GE Healthcare, Little Chalfont, UK]), PAM3Cys (10 ng/ml, [Invivogen, San Diego, Calif., USA]) or R848 (10 μg/ml, [Invivogen]) were added in serum-containing medium. The cells were incubated for 4 h before the supernatants were harvested and frozen prior to further cytokine analysis by the 27-plex assay (Bio-Plex ProTM Human cytokine 27-plex assay).

monocytes = assay: Annexin staining / flow cytometry of monocytes (apoptosis); assay type: cell-based, human; settings: 4 hours, monocytes
Experimental: Annexin staining was used to determine cell viability and cells were counted using flow cytometry.
Peripheral blood […] were isolated from A+ buffy coats (Blood Bank, St. Olav's University Hospital) by density gradient centrifugation (Lymphoprep; Axis-Shield PoC, Oslo, Norway). The adherent cell fraction after 90 minute incubation, termed monocytes, were washed twice with HANKS and maintained in RPMI 1640 supplemented with 2 mM glutamine, […] gentamicin and 25% heat-inactivated HS over-night. Cells were cultured at 37° C. in a humidified atmosphere of 5% CO2 over-night. […] An R11 peptide and no peptide treatment were used as controls. After 4 hours, the cells were washed once in PBS, and re-suspended in buffer as recommended by the manufacturer of the Annexin V-Pacific Blue kit (Invitrogen). Cells were identified monocytes according to size (FSC) and granularity (SSC).

Row | SMILES | cytokine secretion from stimulated monocytes, single agent [1] | Percentage of annexin positive cells (monocytes; 5μM peptide treatment) [%] | Percentage of annexin positive cells (monocytes; 10 μM peptide treatment) [%]
1 | O=C1/C(=C/c2ccncc2)CCC/C1=C\c1ccncc1 [SC66, reference compound] | reduces cytokine secretion of monocytes to or below the basal levels |  | 
2 | CC[C@H](C)[C@H](NC(=O)[C@H](CCCCN)NC(=O)[C@H](CCCNC(=N)N)NC(=O)[C@H](CCCCN)NC(=O)[C@H](CCCCN)NC(=O)[C@H](CCCCN)NC(=O)[C@H](Cc1c[nH]c2ccccc12)NC(=O)[C@@H]1CCCN1C(=O)[C@@H](NC(=O)[C@H](CC(C)C)NC(=O)[C@H](Cc1c[nH]c2ccccc12)NC(=O)[C@H](CCCNC(=N)N)NC(=O)[C@H](CC(=O)O)NC(=O)[C@@H](N)CCSC)C(C)C)C(=O)N[C@@H](CCCNC(=N)N)C(=O)N[C@@H](CCCNC(=N)N)C(=O)N[C@@H](CCCNC(=N)N)C(=O)N[C@@H](CCCNC(=N)N)C(=O)N[C@@H](CCCNC(=N)N)C(=O)N[C@@H](CCCNC(=N)N)C(=O)N[C@@H](CCCNC(=N)N)C(=O)N[C@@H](CCCNC(=N)N)C(=O)N[C@@H](CCCNC(=N)N)C(=O)N[C@@H](CCCNC(=N)N)C(=O)N[C@@H](CCCNC(=N)N)C(=O)O [ATX-P] |  | 65 | 81
3 | C[S+]([O-])c1ccc(-c2nc(-c3ccncc3)c(-c3ccc(F)cc3)[nH]2)cc1 (stereo not drawn) [SB203580, reference compound] | reduced cytokine secretion |  | 
4 | N=C(N)NCCC[C@H](NC(=O)[C@H](CCCNC(=N)N)NC(=O)[C@H](CCCNC(=N)N)NC(=O)[C@H](CCCNC(=N)N)NC(=O)[C@H](CCCNC(=N)N)NC(=O)[C@H](CCCNC(=N)N)NC(=O)[C@H](CCCNC(=N)N)NC(=O)[C@H](CCCNC(=N)N)NC(=O)[C@H](CCCNC(=N)N)NC(=O)[C@H](CCCNC(=N)N)NC(=O)[C@@H](N)CCCNC(=N)N)C(=O)O [R11, reference compound] |  | 55 | 56
